Reference: PubChem BioAssay (NCI)
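Five concentrations, 48 hours, 96-well plates. GI50 marks 50% less growth. TGI is the concentration that stops growth completely.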

Key:
Test in all cases: inhibition of tumour cell growth, NCI panel, 48 h
OVCAR-3 ovarian = test system: OVCAR-3 ovarian
COLO 205 colon = test system: COLO 205 colon
TK-10 renal = test system: TK-10 renal
MDA-MB-231 breast = test system: MDA-MB-231 breast
RPMI-8226 leukemia = test system: RPMI-8226 leukemia
UO-31 renal = test system: UO-31 renal
SK-MEL-5 melanoma = test system: SK-MEL-5 melanoma
U251 CNS = test system: U251 CNS
SK-MEL-28 melanoma = test system: SK-MEL-28 melanoma
DU-145 prostate = test system: DU-145 prostate
SR leukemia = test system: SR leukemia
SK-MEL-2 melanoma = test system: SK-MEL-2 melanoma
UACC-257 melanoma = test system: UACC-257 melanoma
HCC-2998 colon = test system: HCC-2998 colon
MALME-3M melanoma = test system: MALME-3M melanoma
786-0 renal = test system: 786-0 renal
KM12 colon = test system: KM12 colon
SF-295 CNS = test system: SF-295 CNS
SNB-19 CNS = test system: SNB-19 CNS
HS 578T breast = test system: HS 578T breast
NCI-H226 lung = test system: NCI-H226 lung
SNB-75 CNS = test system: SNB-75 CNS
HOP-92 NSCLC = test system: HOP-92 NSCLC
HCT-15 colon = test system: HCT-15 colon
NCI-H23 lung = test system: NCI-H23 lung
EKVX NSCLC = test system: EKVX NSCLC
HOP-62 NSCLC = test system: HOP-62 NSCLC
RXF 393 renal = test system: RXF 393 renal
T-47D breast = test system: T-47D breast
OVCAR-4 ovarian = test system: OVCAR-4 ovarian
IGROV1 ovarian = test system: IGROV1 ovarian
A549 NSCLC = test system: A549 NSCLC
BT-549 breast = test system: BT-549 breast
NCI-H522 lung = test system: NCI-H522 lung
HL-60(TB) leukemia = test system: HL-60(TB) leukemia
MDA-MB-435 = test system: MDA-MB-435
OVCAR-5 ovarian = test system: OVCAR-5 ovarian
A498 renal = test system: A498 renal
M14 melanoma = test system: M14 melanoma
LOX IMVI melanoma = test system: LOX IMVI melanoma
SF-268 CNS = test system: SF-268 CNS
NCI/ADR-RES ovarian = test system: NCI/ADR-RES ovarian
ACHN renal = test system: ACHN renal
SK-OV-3 ovarian = test system: SK-OV-3 ovarian
MCF7 breast = test system: MCF7 breast
OVCAR-8 ovarian = test system: OVCAR-8 ovarian
SF-539 CNS = test system: SF-539 CNS
UACC-62 melanoma = test system: UACC-62 melanoma
SW-620 colon = test system: SW-620 colon
HT29 colon = test system: HT29 colon
CCRF-CEM leukemia = test system: CCRF-CEM leukemia
SN12C renal = test system: SN12C renal
K-562 leukemia = test system: K-562 leukemia
PC-3 prostate = test system: PC-3 prostate
NCI-H460 lung = test system: NCI-H460 lung
HCT-116 colon = test system: HCT-116 colon
MOLT-4 leukemia = test system: MOLT-4 leukemia

CSc1nnc(-c2cc3c([nH]c4ccccc43)c(-c3cccc(O)c3)n2)n1-c1ccc(C)cc1
GI50 (OVCAR-3 ovarian): 2.64 µM
TGI (OVCAR-3 ovarian): 9.24 µM
GI50 (COLO 205 colon): 4.49 µM
TGI (COLO 205 colon): 43.6 µM
GI50 (TK-10 renal): 3.01 µM
TGI (TK-10 renal): 9.64 µM
GI50 (MDA-MB-231 breast): 3.31 µM
TGI (MDA-MB-231 breast): 15.8 µM
GI50 (RPMI-8226 leukemia): 5.31 µM
TGI (RPMI-8226 leukemia): > 100 µM
GI50 (UO-31 renal): 1.93 µM
TGI (UO-31 renal): 29.1 µM
GI50 (SK-MEL-5 melanoma): 2.38 µM
TGI (SK-MEL-5 melanoma): 11.5 µM
GI50 (U251 CNS): 4.84 µM
TGI (U251 CNS): 28.7 µM
GI50 (SK-MEL-28 melanoma): 2.23 µM
TGI (SK-MEL-28 melanoma): 7.74 µM
GI50 (DU-145 prostate): 4.57 µM
TGI (DU-145 prostate): 77.6 µM
GI50 (SR leukemia): 2.09 µM
TGI (SR leukemia): > 100 µM
GI50 (SK-MEL-2 melanoma): 2.11 µM
TGI (SK-MEL-2 melanoma): 6.61 µM
GI50 (UACC-257 melanoma): 5 µM
TGI (UACC-257 melanoma): 44.7 µM
GI50 (HCC-2998 colon): 12.3 µM
TGI (HCC-2998 colon): > 100 µM
GI50 (MALME-3M melanoma): 1.88 µM
TGI (MALME-3M melanoma): 5.4 µM
GI50 (786-0 renal): 4.61 µM
TGI (786-0 renal): 32.2 µM
GI50 (KM12 colon): 3.86 µM
TGI (KM12 colon): > 100 µM
GI50 (SF-295 CNS): 2.59 µM
TGI (SF-295 CNS): 9.62 µM
GI50 (SNB-19 CNS): 3.71 µM
TGI (SNB-19 CNS): 28.6 µM
GI50 (HS 578T breast): 3.86 µM
TGI (HS 578T breast): 72.1 µM
GI50 (NCI-H226 lung): 3.32 µM
TGI (NCI-H226 lung): 18 µM
GI50 (SNB-75 CNS): 1.66 µM
TGI (SNB-75 CNS): 5.33 µM
GI50 (HOP-92 NSCLC): 1.75 µM
TGI (HOP-92 NSCLC): 7.59 µM
GI50 (HCT-15 colon): 3.55 µM
TGI (HCT-15 colon): > 100 µM
GI50 (NCI-H23 lung): 5.76 µM
TGI (NCI-H23 lung): > 100 µM
GI50 (EKVX NSCLC): 4.51 µM
TGI (EKVX NSCLC): > 100 µM
GI50 (HOP-62 NSCLC): 2.47 µM
TGI (HOP-62 NSCLC): 7.45 µM
GI50 (RXF 393 renal): 2.11 µM
TGI (RXF 393 renal): 6.51 µM
GI50 (T-47D breast): 1.95 µM
TGI (T-47D breast): 8.16 µM
GI50 (OVCAR-4 ovarian): 2.73 µM
TGI (OVCAR-4 ovarian): 8.61 µM
GI50 (IGROV1 ovarian): 3.62 µM
TGI (IGROV1 ovarian): 24.6 µM
GI50 (A549 NSCLC): 3.79 µM
TGI (A549 NSCLC): 24.6 µM
GI50 (BT-549 breast): 2.37 µM
TGI (BT-549 breast): 9.27 µM
GI50 (NCI-H522 lung): 2.26 µM
TGI (NCI-H522 lung): 11.1 µM
GI50 (HL-60(TB) leukemia): 3.02 µM
TGI (HL-60(TB) leukemia): > 100 µM
GI50 (MDA-MB-435): 1.32 µM
TGI (MDA-MB-435): 11.2 µM
GI50 (OVCAR-5 ovarian): 17.2 µM
TGI (OVCAR-5 ovarian): 70.1 µM
GI50 (A498 renal): 1.73 µM
TGI (A498 renal): 7.14 µM
GI50 (M14 melanoma): 3.83 µM
TGI (M14 melanoma): > 100 µM
GI50 (LOX IMVI melanoma): 5.05 µM
TGI (LOX IMVI melanoma): > 100 µM
GI50 (SF-268 CNS): 3.83 µM
TGI (SF-268 CNS): 48.1 µM
GI50 (NCI/ADR-RES ovarian): 5.64 µM
TGI (NCI/ADR-RES ovarian): > 100 µM
GI50 (ACHN renal): 2.11 µM
TGI (ACHN renal): 6.06 µM
GI50 (SK-OV-3 ovarian): 3.19 µM
TGI (SK-OV-3 ovarian): 14 µM
GI50 (MCF7 breast): 2.5 µM
TGI (MCF7 breast): > 100 µM
GI50 (OVCAR-8 ovarian): 4.25 µM
TGI (OVCAR-8 ovarian): 45.2 µM
GI50 (SF-539 CNS): 2.81 µM
TGI (SF-539 CNS): 14.1 µM
GI50 (UACC-62 melanoma): 3.28 µM
TGI (UACC-62 melanoma): 21.5 µM
GI50 (SW-620 colon): 5.8 µM
TGI (SW-620 colon): > 100 µM
GI50 (HT29 colon): 3.39 µM
TGI (HT29 colon): > 100 µM
GI50 (CCRF-CEM leukemia): 9.4 µM
TGI (CCRF-CEM leukemia): > 100 µM
GI50 (SN12C renal): 5.83 µM
TGI (SN12C renal): 81.6 µM
GI50 (K-562 leukemia): 5.08 µM
TGI (K-562 leukemia): > 100 µM
GI50 (PC-3 prostate): 3.58 µM
TGI (PC-3 prostate): 23 µM
GI50 (NCI-H460 lung): 3.31 µM
TGI (NCI-H460 lung): 14.6 µM
GI50 (HCT-116 colon): 4.35 µM
TGI (HCT-116 colon): > 100 µM
GI50 (MOLT-4 leukemia): 3.65 µM
TGI (MOLT-4 leukemia): > 100 µM
